From PubChem BioAssay (NCI)
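Tested at 5 concentrations; 48 h exposure; 96-well plates; endpoints linearly interpolated, else capped at highest concentration. TGI denotes the concentration required for complete inhibition of growth.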

How the values were obtained:
Test in all cases: inhibition of tumour cell growth, NCI panel, 48 h
786-0 renal = system: 786-0 renal
A498 renal = system: A498 renal
A549 NSCLC = system: A549 NSCLC
ACHN renal = system: ACHN renal
BT-549 breast = system: BT-549 breast
CAKI-1 renal = system: CAKI-1 renal
CCRF-CEM leukemia = system: CCRF-CEM leukemia
COLO 205 colon = system: COLO 205 colon
DU-145 prostate = system: DU-145 prostate
EKVX NSCLC = system: EKVX NSCLC
HCC-2998 colon = system: HCC-2998 colon
HCT-116 colon = system: HCT-116 colon
HCT-15 colon = system: HCT-15 colon
HL-60(TB) leukemia = system: HL-60(TB) leukemia
HOP-62 NSCLC = system: HOP-62 NSCLC
HOP-92 NSCLC = system: HOP-92 NSCLC
HS 578T breast = system: HS 578T breast
HT29 colon = system: HT29 colon
IGROV1 ovarian = system: IGROV1 ovarian
K-562 leukemia = system: K-562 leukemia
KM12 colon = system: KM12 colon
LOX IMVI melanoma = system: LOX IMVI melanoma
M14 melanoma = system: M14 melanoma
MCF7 breast = system: MCF7 breast
MDA-MB-231 breast = system: MDA-MB-231 breast
MDA-MB-435 = system: MDA-MB-435
MDA-N = system: MDA-N
MOLT-4 leukemia = system: MOLT-4 leukemia
NCI-H23 lung = system: NCI-H23 lung
NCI-H460 lung = system: NCI-H460 lung
NCI-H522 lung = system: NCI-H522 lung
NCI/ADR-RES ovarian = system: NCI/ADR-RES ovarian
OVCAR-3 ovarian = system: OVCAR-3 ovarian
OVCAR-4 ovarian = system: OVCAR-4 ovarian
OVCAR-5 ovarian = system: OVCAR-5 ovarian
OVCAR-8 ovarian = system: OVCAR-8 ovarian
PC-3 prostate = system: PC-3 prostate
RXF 393 renal = system: RXF 393 renal
SF-268 CNS = system: SF-268 CNS
SF-295 CNS = system: SF-295 CNS
SF-539 CNS = system: SF-539 CNS
SK-MEL-2 melanoma = system: SK-MEL-2 melanoma
SK-MEL-28 melanoma = system: SK-MEL-28 melanoma
SK-MEL-5 melanoma = system: SK-MEL-5 melanoma
SN12C renal = system: SN12C renal
SNB-19 CNS = system: SNB-19 CNS
SNB-75 CNS = system: SNB-75 CNS
SR leukemia = system: SR leukemia
SW-620 colon = system: SW-620 colon
T-47D breast = system: T-47D breast
TK-10 renal = system: TK-10 renal
U251 CNS = system: U251 CNS
UACC-257 melanoma = system: UACC-257 melanoma
UACC-62 melanoma = system: UACC-62 melanoma
UO-31 renal = system: UO-31 renal
MALME-3M melanoma = system: MALME-3M melanoma
NCI-H226 lung = system: NCI-H226 lung
SK-OV-3 ovarian = system: SK-OV-3 ovarian
RPMI-8226 leukemia = system: RPMI-8226 leukemia

Measured: TGI

COC(=O)C12C3C4(C(=O)OC)C1C1(C(=O)OC)C2C3(C(=O)OC)C41C(=O)N(C(C)C)C(C)C (stereo not given)
> 100 µM: 786-0 renal | A498 renal | A549 NSCLC | ACHN renal | BT-549 breast | CAKI-1 renal | CCRF-CEM leukemia | COLO 205 colon | DU-145 prostate | EKVX NSCLC | HCC-2998 colon | HCT-116 colon | HCT-15 colon | HL-60(TB) leukemia | HOP-62 NSCLC | HOP-92 NSCLC | HS 578T breast | HT29 colon | IGROV1 ovarian | K-562 leukemia | KM12 colon | LOX IMVI melanoma | M14 melanoma | MCF7 breast | MDA-MB-231 breast | MDA-MB-435 | MDA-N | MOLT-4 leukemia | NCI-H23 lung | NCI-H460 lung | NCI-H522 lung | NCI/ADR-RES ovarian | OVCAR-3 ovarian | OVCAR-4 ovarian | OVCAR-5 ovarian | OVCAR-8 ovarian | PC-3 prostate | RXF 393 renal | SF-268 CNS | SF-295 CNS | SF-539 CNS | SK-MEL-2 melanoma | SK-MEL-28 melanoma | SK-MEL-5 melanoma | SN12C renal | SNB-19 CNS | SNB-75 CNS | SR leukemia | SW-620 colon | T-47D breast | TK-10 renal | U251 CNS | UACC-257 melanoma | UACC-62 melanoma | UO-31 renal

Cc1cc(S(=O)(=O)n2cc[nH]c2=O)c(SCCCN(C)C)cc1Cl
> 100 µM: 786-0 renal | A498 renal | A549 NSCLC | ACHN renal | BT-549 breast | CAKI-1 renal | CCRF-CEM leukemia | COLO 205 colon | DU-145 prostate | EKVX NSCLC | HCC-2998 colon | HCT-116 colon | HCT-15 colon | HOP-62 NSCLC | HS 578T breast | HT29 colon | IGROV1 ovarian | K-562 leukemia | KM12 colon | LOX IMVI melanoma | M14 melanoma | MALME-3M melanoma | MCF7 breast | MDA-MB-231 breast | MDA-MB-435 | MDA-N | MOLT-4 leukemia | NCI-H226 lung | NCI-H23 lung | NCI-H460 lung | NCI-H522 lung | NCI/ADR-RES ovarian | OVCAR-3 ovarian | OVCAR-4 ovarian | OVCAR-5 ovarian | OVCAR-8 ovarian | PC-3 prostate | RXF 393 renal | SF-268 CNS | SF-295 CNS | SF-539 CNS | SK-MEL-2 melanoma | SK-MEL-28 melanoma | SK-MEL-5 melanoma | SK-OV-3 ovarian | SN12C renal | SNB-19 CNS | SR leukemia | SW-620 colon | T-47D breast | TK-10 renal | U251 CNS | UACC-257 melanoma | UACC-62 melanoma | UO-31 renal

NNC1=Nc2ccc(Cl)cc2C(=S)N2CSCC12 (stereo not given)
> 100 µM: 786-0 renal | A498 renal | A549 NSCLC | ACHN renal | BT-549 breast | CAKI-1 renal | CCRF-CEM leukemia | COLO 205 colon | DU-145 prostate | EKVX NSCLC | HCC-2998 colon | HCT-116 colon | HCT-15 colon | HOP-62 NSCLC | HS 578T breast | HT29 colon | IGROV1 ovarian | K-562 leukemia | KM12 colon | LOX IMVI melanoma | M14 melanoma | MALME-3M melanoma | MCF7 breast | MDA-MB-231 breast | MDA-MB-435 | MDA-N | MOLT-4 leukemia | NCI-H226 lung | NCI-H460 lung | NCI-H522 lung | NCI/ADR-RES ovarian | OVCAR-3 ovarian | OVCAR-4 ovarian | OVCAR-5 ovarian | OVCAR-8 ovarian | PC-3 prostate | RPMI-8226 leukemia | RXF 393 renal | SF-268 CNS | SF-295 CNS | SK-MEL-2 melanoma | SK-MEL-28 melanoma | SK-MEL-5 melanoma | SK-OV-3 ovarian | SN12C renal | SNB-19 CNS | SNB-75 CNS | SR leukemia | SW-620 colon | T-47D breast | TK-10 renal | U251 CNS | UACC-257 melanoma | UACC-62 melanoma | UO-31 renal
